{
  "source": "ChEMBL document CHEMBL1126601",
  "about": "“Synthesis of a photoaffinity analog of taxol as an approach to identify the taxol binding site on microtubules” (J Med Chem, 1993)",
  "key": {"Mus musculus": {"species": "Mus musculus", "assay": "Ability to inhibit binding of [3H]taxol was determined", "assay_type": "functional"}, "J774": {"system": "J774", "assay": "Drug concentration that inhibits cell division by 50% after 72 hr incubation for murine like macrophage cell line J774.2", "assay_type": "functional", "conditions": "Mus musculus, J774, 72 h; read-out: ED50 (the source's name)"}},
  "data": [
    {"smiles": "CC(=O)O[C@H]1C(=O)[C@@]2(C)C([C@H](CC(=O)c3ccccc3)[C@]3(O)C[C@H](OC(=O)[C@H](O)C(NC(=O)c4ccccc4)c4ccccc4)C(C)=C1C3(C)C)[C@]1(OC(C)=O)CO[C@@H]1C[C@@H]2O", "note": "(some centres not stated)", "values": [
      {"measurement": "Ki", "setting": "Mus musculus", "value": 2000, "unit": "nM"},
      {"measurement": "EC50", "setting": "J774", "value": 50, "unit": "nM"}
    ]}
  ]
}
